Columns and labels:
Conditions in all cases: drug exposure time: 96 h
Belinostat = compound: O=C(/C=C/c1cccc(S(=O)(=O)Nc2ccccc2)c1)NO [Belinostat]
Procedure: (§1)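 Breast cancer cell lines were grown in RPMI 1640 with 10% FBS on collagen I-coated 96-well plates and treated for 96 h (from 24 h after seeding) with 12 dilutions per drug, in triplicate. Growth was read by sulforhodamine B total-protein staining (absorbance 570 nm) relative to diluent control, and IC50 was calculated. The top dose was 1e-5 M for most drugs; Bortezomib went to 2e-5 M and Sirolimus and 17-AAG to 2e-6 M[…].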

Vandetanib = compound: COc1cc2/c(=N/c3ccc(Br)cc3F)nc[nH]c2cc1OCC1CCN(C)CC1 [Vandetanib]
Procedure: as §1

Quisinostat = compound: Cn1cc(CNCC2CCN(c3ncc(C(=O)NO)cn3)CC2)c2ccccc21 [Quisinostat]
Procedure: as §1

Gefitinib = compound: COc1cc2ncnc(Nc3ccc(F)c(Cl)c3)c2cc1OCCCN1CCOCC1 [Gefitinib]
Procedure: as §1

Azacitidine = compound: Nc1ncn([C@@H]2O[C@H](CO)[C@@H](O)[C@H]2O)c(=O)n1 [Azacitidine]
Procedure: as §1

Paclitaxel = compound: CC(=O)O[C@H]1C(=O)[C@@]2(C)[C@H]([C@H](OC(=O)c3ccccc3)[C@]3(O)C[C@H](OC(=O)[C@H](O)[C@@H](NC(=O)c4ccccc4)c4ccccc4)C(C)=C1C3(C)C)[C@]1(OC(C)=O)CO[C@@H]1C[C@@H]2O [Paclitaxel]
Procedure: as §1

ARQ197 = compound: O=C1NC(=O)[C@@H](c2cn3c4c(cccc24)CCC3)[C@@H]1c1c[nH]c2ccccc12 [ARQ197]
Procedure: as §1

Sunitinib = compound: CCN(CC)CCNC(=O)c1c(C)[nH]c(/C=C2\C(=O)Nc3ccc(F)cc32)c1C [Sunitinib]
Procedure: as §1

Cisplatin = compound: N.N.[Cl][Pt][Cl] [Cisplatin]
Procedure: as §1

Serdemetan = compound: c1ccc2c(CCNc3ccc(Nc4ccncc4)cc3)c[nH]c2c1 [Serdemetan]
Procedure: as §1

Erlotinib = compound: C#Cc1cccc(Nc2ncnc3cc(OCCOC)c(OCCOC)cc23)c1 [Erlotinib]
Procedure: as §1

Docetaxel = compound: CC(=O)O[C@@]12CO[C@@H]1C[C@H](O)[C@@]1(C)C(=O)[C@H](O)C3=C(C)[C@@H](OC(=O)[C@H](O)[C@@H](NC(=O)OC(C)(C)C)c4ccccc4)C[C@@](O)([C@@H](OC(=O)c4ccccc4)[C@H]21)C3(C)C [Docetaxel]
Procedure: as §1

5-Fluorouracil = compound: O=c1[nH]cc(F)c(=O)[nH]1 [5-Fluorouracil]
Procedure: as §1

Tipifarnib = compound: Cn1cncc1[C@@](N)(c1ccc(Cl)cc1)c1ccc2c(c1)c(-c1cccc(Cl)c1)cc(=O)n2C [Tipifarnib]
Procedure: as §1

Decitabine = compound: Nc1ncn([C@H]2C[C@H](O)[C@@H](CO)O2)c(=O)n1 [Decitabine]
Procedure: as §1

Doxorubicin = compound: COc1cccc2c1C(=O)c1c(O)c3c(c(O)c1C2=O)C[C@@](O)(C(=O)CO)C[C@@H]3O[C@H]1C[C@H](N)[C@H](O)[C@H](C)O1 [Doxorubicin]
Procedure: as §1

Brivanib = compound: Cc1cc2c(F)c(Oc3ncnn4cc(OC[C@@H](C)O)c(C)c34)ccc2[nH]1 [Brivanib]
Procedure: as §1

MI-219 = compound: CC(C)(C)C[C@H]1N[C@@H](C(=O)NCC[C@H](O)CO)[C@H](c2cccc(Cl)c2)[C@@]12C(=O)Nc1cc(Cl)c(F)cc12 [MI-219]
Procedure: as §1

Sorafenib = compound: CNC(=O)c1cc(Oc2ccc(NC(=O)Nc3ccc(Cl)c(C(F)(F)F)c3)cc2)ccn1 [Sorafenib]
Procedure: as §1

Lapatinib = compound: CS(=O)(=O)CCNCc1ccc(-c2ccc3ncnc(Nc4ccc(OCc5cccc(F)c5)c(Cl)c4)c3c2)o1 [Lapatinib]
Procedure: as §1

Mitoxantrone = compound: O=C1c2c(O)ccc(O)c2C(=O)c2c(NCCNCCO)ccc(NCCNCCO)c21 [Mitoxantrone]
Procedure: as §1

Dasatinib = compound: Cc1nc(Nc2ncc(C(=O)Nc3c(C)cccc3Cl)s2)cc(N2CCN(CCO)CC2)n1 [Dasatinib]
Procedure: as §1

Nutlin-3 = compound: COc1ccc(C2=N[C@@H](c3ccc(Cl)cc3)[C@@H](c3ccc(Cl)cc3)N2C(=O)N2CCNC(=O)C2)c(OC(C)C)c1 [Nutlin-3]
Procedure: as §1

Methotrexate = compound: CN(Cc1cnc2nc(N)nc(N)c2n1)c1ccc(C(=O)N[C@@H](CCC(=O)O)C(=O)O)cc1 [Methotrexate]
Procedure: as §1

Vorinostat = compound: O=C(CCCCCCC(=O)Nc1ccccc1)NO [Vorinostat]
Procedure: as §1

Panobinostat = compound: Cc1[nH]c2ccccc2c1CCNCc1ccc(/C=C/C(=O)NO)cc1 [Panobinostat]
Procedure: as §1

Tamoxifen = compound: CC/C(=C(\c1ccccc1)c1ccc(OCCN(C)C)cc1)c1ccccc1 [Tamoxifen]
Procedure: as §1

Bortezomib = compound: CC(C)C[C@H](NC(=O)[C@H](Cc1ccccc1)NC(=O)c1cnccn1)B(O)O [Bortezomib]
Procedure: (§2)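 Same SRB 96 h IC50 screen on breast cancer cell lines (RPMI 1640 + 10% FBS, collagen I-coated 96-well plates, triplicates, 12 dilutions), for drugs with a different dose range: Bortezomib up to 2e-5 M; Sirolimus and 17-AAG up to 2e-6 M. Sirolimus values at the 2e-6 M top dose are censored.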

17-AAG = compound: C=CCNC1=C2C[C@@H](C)C[C@H](OC)[C@H](O)[C@@H](C)/C=C(\C)[C@H](OC(N)=O)[C@@H](OC)/C=C\C=C(/C)C(=O)NC(=CC1=O)C2=O [17-AAG]
Procedure: as §2

Sirolimus = compound: CO[C@H]1C[C@@H]2CC[C@@H](C)[C@@](O)(O2)C(=O)C(=O)N2CCCC[C@H]2C(=O)O[C@H]([C@H](C)C[C@@H]2CC[C@@H](O)[C@H](OC)C2)CC(=O)[C@H](C)/C=C(\C)[C@@H](O)[C@@H](OC)C(=O)[C@H](C)C[C@H](C)/C=C/C=C/C=C/1C [Sirolimus]
Procedure: as §2

Test System	IC50 (SRB growth assay) (Belinostat) [nM]	IC50 (SRB growth assay) (Vandetanib) [nM]	IC50 (SRB growth assay) (Quisinostat) [nM]	IC50 (SRB growth assay) (Gefitinib) [nM]	IC50 (SRB growth assay) (Azacitidine) [nM]	IC50 (SRB growth assay) (Paclitaxel) [nM]	IC50 (SRB growth assay) (ARQ197) [nM]	IC50 (SRB growth assay) (Sunitinib) [nM]	IC50 (SRB growth assay) (Cisplatin) [nM]	IC50 (SRB growth assay) (Serdemetan) [nM]	IC50 (SRB growth assay) (Erlotinib) [nM]	IC50 (SRB growth assay) (Docetaxel) [nM]	IC50 (SRB growth assay) (5-Fluorouracil) [nM]	IC50 (SRB growth assay) (Tipifarnib) [nM]	IC50 (SRB growth assay) (Decitabine) [nM]	IC50 (SRB growth assay) (Doxorubicin) [nM]	IC50 (SRB growth assay) (Brivanib) [nM]	IC50 (SRB growth assay) (MI-219) [nM]	IC50 (SRB growth assay) (Sorafenib) [nM]	IC50 (SRB growth assay) (Lapatinib) [nM]	IC50 (SRB growth assay) (Mitoxantrone) [nM]	IC50 (SRB growth assay) (Dasatinib) [nM]	IC50 (SRB growth assay) (Nutlin-3) [nM]	IC50 (SRB growth assay) (Methotrexate) [nM]	IC50 (SRB growth assay) (Vorinostat) [nM]	IC50 (SRB growth assay) (Panobinostat) [nM]	IC50 (SRB growth assay) (Tamoxifen) [nM]	IC50 (SRB growth assay) (Bortezomib) [nM]	IC50 (SRB growth assay) (17-AAG) [nM]	IC50 (SRB growth assay) (Sirolimus) [nM]
MDA-MB 415	548	4780	24.1	> 10000	> 10000	5.81	691	5100	> 10000	6070	> 10000	0.764	6530	6780	> 10000	66	> 10000	> 10000	5200	> 10000	31.3	> 10000	> 10000	326	1530	23.6	9970	10.8	71.8	0.688
MDA-MB 435 S	2010	6950	25.2	> 10000	3760	2.15	705	5440	> 10000	2050	> 10000	1.32	2860	> 10000	> 10000	54.8	> 10000	> 10000	6530	> 10000	35.8	> 10000	> 10000	12.4	2630	44.5	> 10000	12.3	164	> 2000
MDA-MB 436	637	4100	23.5	4960	1670	2.3	359	2170	1400	1000	1970	0.772	981	703	783	5.7	> 10000	> 10000	4830	4660	0.781	1290	> 10000	27.7	1890	34.6	> 10000	6.95	34.9	3.42
MDA-MB 453	52.7	5110	2.01	> 10000	7190	2.14	192	6260	> 10000	796	> 10000	0.872	> 10000	2140	4170	31.9	> 10000	> 10000	4930	827	8.79	3.93	> 10000	> 10000	368	5.73	6360	6.37	3.08	0.19
MDA-MB 468	436	1990	9.89	990	2340	1.56	222	2940	974	837	1150	0.515	5280	77	77.7	9.63	> 10000	> 10000	4530	762	4.09	> 10000	> 10000	7.54	1030	14.9	4940	4.31	745	2.22
MPE 600	379	1990	14.8	4260	548	2.51	859	6560	> 10000	2260	8850	1.15	1250	631	595	26.6	> 10000	2050	1900	3080	8.01	> 10000	4450	31	1220	13.8	> 10000	5.48	104	1.52
OCUB-M	133	2770	5.92	> 10000	1690	0.888	483	3520	> 10000	2850	9580	0.279	1880	156	3680	1.98	> 10000	> 10000	3830	2200	1.27	> 10000	> 10000	6.6	520	8.13	> 10000	3.35	119	0.132
SKBR 3	190	3490	3.33	2630	2690	1.68	404	3410	> 10000	1080	3740	0.589	4770	279	2350	20.4	> 10000	> 10000	4790	43.7	4.74	> 10000	> 10000	9.97	499	5.39	6720	5.5	18.9	0.587
SUM 44 PE	139	4200	2.21	> 10000	3440	1.35	539	5020	> 10000	2880	> 10000	0.414	8640	3270	> 10000	30.8	> 10000	> 10000	5050	4760	20.7	> 10000	> 10000	> 10000	564	9.33	5200	9.46	15.8	0.222
SUM 52 PE	183	711	1.47	7870	2000	1.42	427	1160	6700	570	8810	0.489	1240	185	2210	17.7	1270	> 10000	655	3210	7.57	2200	> 10000	23.2	366	7.17	6890	5.23	35.4	0.165
T 47 D	239	2520	8.14	8770	7300	1.72	1460	4310	> 10000	1100	7140	0.62	2800	403	> 10000	10.4	> 10000	> 10000	2730	2210	2.65	> 10000	> 10000	> 10000	828	10.5	3420	1.7	913	0.143
UACC 812	901	3540	17.2	4830	> 10000	5.67	528	5490	> 10000	1050	4080	1.65	6240	666	> 10000	79.9	> 10000	822	3110	132	275	1600	1720	> 10000	2270	29.9	> 10000	7.5	3.62	0.144
ZR 75-1	1680	3820	27.1	> 10000	3750	6.65	733	> 10000	> 10000	822	> 10000	4.52	2320	822	> 10000	44.9	> 10000	> 10000	5980	6330	10.2	1660	> 10000	34.5	2980	46.8	4490	5.51	45.9	0.244
